Source: patent US20240158383A1, “RIBONUCLEOTIDE REDUCTASE (RNR) INHIBITORS AND USES THEREOF” (Boundless Bio, Inc., priority 2021, published 2024)

Tests used:
RNR (RNR1:RNR2) = RNR (RNR1:RNR2) (Homo sapiens (Human), UniProt P23921+P31350); assay: RNR enzyme activity, rapid-fire mass spectrometry (RFMS) assay; type: biochemical; settings: [RNR] 50 nM, 1:1 RNR1:RNR2, [CDP] 5 μM, [ATP] 1 mM, 37° C., 45 min
Method: A rapid-fire mass spectrometry (RFMS) assay was used to assess RNR enzyme activity using a 384 well plate and a robotic platform.
The plate layout included two validated reference compounds (Triapine (3-AP) and Hydroxyurea (HU)): • A dose response in duplicate; top concentration: 5 μM (3-AP) and 250 μM (HU), semi-log • dilutions. • Spike wells in triplicate randomly spotted at four concentrations: • 250 μM, 100 μM, 30 μM and 2 μM for HU • 5 μM, 2 μM, 0.6 μM and 0.04 μM for 3-AP
First, the multidrop pipes were saturated for 30 minutes with enzymatic solution. Then 30 μL of Stop solution was distributed in column 24. Next, 15 μL of enzyme was distributed in column 1 to 24. Next, a pre-incubation step of 15 minutes at room temperature occurred, followed by distribution of 15 μL of substrate solution (column 1 to 24). Next, the plate was incubated for 45 minutes at 37° C. 30 μL of Stop solution was distributed to columns 1 to 23.
The final parameters for the enzyme reactions were: • Incubation: 37° C., 45 min • [CDP]: 5 μM; [ATP]: 1 mM; [NADPH]: No • [RNR]final: 50 nM with 1:1 (RNR1:RNR2) ratio • Final volume: 30 μL • Stop solution: 6% HCOOH containing 2 μM of 15
The compounds were screened at concentrations from 10 nM to 30 μM.

[1] = system: pCHK1 (S345) in Colo320 DM cells; assay: CHK1 cellular activity (phospho-CHK1 AlphaLisa); type: cell-based, human; settings: Homo sapiens, COLO 320DM, 16 h, compound overnight (approximately 16 hours)
Method: Phospho-CHK1 cellular activity was measured as a marker of replication stress which is a consequence of RNR inhibition.
Colo320 DM cells (ATCC #CCL-220, derived from human colorectal adenocarcinoma, Dukes' type C) were seeded on a 96-well cell culture treated assay plate at a density of 50,000 cells/well in 200 μL of RPMI-1640 media supplemented with 10% Fetal Bovine Serum and incubated at 37 degrees Celsius overnight. The following day, test compound dilutions were added directly to the plated cells by a Tecan digital dispenser to a final DMSO concentration of <0.5% and incubated at 37 degrees Celsius overnight (approximately 16 hours). The following day all culture media is removed from the cells. 75 μL of 1× AlphaLisa lysis buffer is added to each well and plates are agitated on a shaker for 30 minutes at room temperature. The lysis of cells and detection of pCHK1 (S345) are performed with reagents contained within the AlphaLisa Sure Fire assay kit (Perkin Elmer #ALSU-PCHK1-A) according to the manufacturer's instructions. 10 μL of each lysate was then transferred to a white, 384-well assay plate (Perkin Elmer #6008280). 5 μL of Acceptor mix was then added to each well of lysate in the white, 384-well assay plate and incubated in the dark at room temperature for 60 minutes. 5 μL of Donor mix was then added to each well of the white, 384-well assay plate in subdued light and incubated at room temperature for 60 minutes. Plates are read on an Alpha Technology-compatible plate reader using standard AlphaLisa settings.

Sequence of RNR (RNR1:RNR2) (P23921 whole entry): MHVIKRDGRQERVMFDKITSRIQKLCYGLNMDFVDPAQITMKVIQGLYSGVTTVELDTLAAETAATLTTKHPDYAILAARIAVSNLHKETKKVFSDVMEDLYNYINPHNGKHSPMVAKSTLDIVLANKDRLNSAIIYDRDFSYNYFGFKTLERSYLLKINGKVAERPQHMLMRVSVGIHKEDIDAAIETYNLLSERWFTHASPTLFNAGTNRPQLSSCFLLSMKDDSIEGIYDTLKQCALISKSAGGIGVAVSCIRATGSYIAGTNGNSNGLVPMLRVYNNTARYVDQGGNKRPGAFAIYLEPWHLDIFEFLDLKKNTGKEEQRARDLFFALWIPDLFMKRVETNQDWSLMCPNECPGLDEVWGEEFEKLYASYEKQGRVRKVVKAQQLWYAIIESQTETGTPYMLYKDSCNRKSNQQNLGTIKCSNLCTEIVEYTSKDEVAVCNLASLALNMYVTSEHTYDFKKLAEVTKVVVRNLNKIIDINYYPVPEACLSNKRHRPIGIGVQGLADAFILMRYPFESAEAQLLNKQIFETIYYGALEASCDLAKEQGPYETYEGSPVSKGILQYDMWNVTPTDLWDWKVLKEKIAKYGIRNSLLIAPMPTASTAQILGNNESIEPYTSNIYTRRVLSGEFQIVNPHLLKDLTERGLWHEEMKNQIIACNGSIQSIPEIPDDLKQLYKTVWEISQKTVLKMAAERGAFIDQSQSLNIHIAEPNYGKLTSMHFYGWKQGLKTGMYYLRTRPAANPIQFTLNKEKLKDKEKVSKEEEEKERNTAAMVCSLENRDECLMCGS
Sequence of RNR (RNR1:RNR2) (P31350 whole entry): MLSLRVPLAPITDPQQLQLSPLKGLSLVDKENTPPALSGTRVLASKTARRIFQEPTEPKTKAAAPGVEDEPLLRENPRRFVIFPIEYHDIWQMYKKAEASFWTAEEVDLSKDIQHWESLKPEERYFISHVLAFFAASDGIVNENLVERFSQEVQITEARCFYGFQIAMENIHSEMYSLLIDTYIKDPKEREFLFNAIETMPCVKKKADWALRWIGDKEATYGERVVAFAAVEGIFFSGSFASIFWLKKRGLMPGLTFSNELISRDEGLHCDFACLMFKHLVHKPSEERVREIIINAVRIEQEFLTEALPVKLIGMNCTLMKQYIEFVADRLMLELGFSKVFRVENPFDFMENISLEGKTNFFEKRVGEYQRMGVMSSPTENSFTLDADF

| Structure (SMILES) | IC50 (RNR (RNR1:RNR2)) | IC50 [1] |
| --- | --- | --- |
| Cc1ccc(F)c([C@@H](C)[C@H](NS(=O)(=O)c2ccc(Cl)c3c2OCCC3=O)c2nn[nH]n2)c1C [Example 9, 5-chloro-N-((1S,2R)-2-(6-fluoro-2,3-dimethylphenyl)-1-(2H-tetrazol-5-yl)propyl)-4-oxochromane-8-sulfonamide] | ≤ 0.1 µM | 50 to 100 µM |
| Cc1ccc(F)c([C@@H](C)[C@H](NS(=O)(=O)c2ccc(Cl)c3c2OCC[C@@H]3O)c2nn[nH]n2)c1C [Example 10, (S)-5-chloro-N-((1S,2R)-2-(6-fluoro-2,3-dimethylphenyl)-1-(2H-tetrazol-5-yl)propyl)-4-hydroxychromane-8-sulfonamide] | ≤ 0.1 µM | 50 to 100 µM |
| Cc1ccc(F)c([C@@H](C)[C@H](NS(=O)(=O)c2ccc(Cl)c3c2OCC[C@H]3O)c2nn[nH]n2)c1C [Example 11, (R)-5-chloro-N-((1S,2R)-2-(6-fluoro-2,3-dimethylphenyl)-1-(2H-tetrazol-5-yl)propyl)-4-hydroxychromane-8-sulfonamide] | ≤ 0.1 µM | 50 to 100 µM |
| [2H]C([2H])([2H])[C@@]1(O)CCOc2c(S(=O)(=O)N[C@H](c3nn[nH]n3)[C@H](C)c3c(F)ccc(C)c3C)ccc(Cl)c21 [Example 12, (R)-5-chloro-N-((1S,2R)-2-(6-fluoro-2,3-dimethylphenyl)-1-(2H-tetrazol-5-yl)propyl)-4-hydroxy-4-(methyl-d3)chromane-8-sulfonamide] | ≤ 0.1 µM | 10 to 30 µM |
| Cc1ccc(F)c([C@@H](C)[C@H](NS(=O)(=O)c2ccc(Cl)cc2CC(=O)O)c2nn[nH]n2)c1C [Example 18, 2-(5-chloro-2-(N-((1S,2R)-2-(6-fluoro-2,3-dimethylphenyl)-1-(2H-tetrazol-5-yl)propyl)sulfamoyl)phenyl)acetic acid] | ≤ 0.1 µM | 50 to 100 µM |
| Cc1ccc(F)c([C@@H](C)[C@H](NS(=O)(=O)c2ccc(Cl)cc2F)c2nn[nH]n2)c1C [Example 19, 4-chloro-2-fluoro-N-((1S,2R)-2-(6-fluoro-2,3-dimethylphenyl)-1-(2H-tetrazol-5-yl)propyl)benzenesulfonamide] | 0.1 to 1 µM | 10 to 30 µM |
| CCc1cc(Cl)ccc1S(=O)(=O)N[C@H](c1nn[nH]n1)[C@H](C)c1c(F)ccc(C)c1C [Example 20, 4-chloro-2-ethyl-N-((1S,2R)-2-(6-fluoro-2,3-dimethylphenyl)-1-(2H-tetrazol-5-yl)propyl)benzenesulfonamide] | 0.1 to 1 µM | 30 to 50 µM |
| Cc1ccc(F)c([C@@H](C)[C@H](NS(=O)(=O)c2ccc(Cl)cc2C(F)(F)F)c2nn[nH]n2)c1C [Example 21, 4-chloro-N-((1S,2R)-2-(6-fluoro-2,3-dimethylphenyl)-1-(2H-tetrazol-5-yl)propyl)-2-(trifluoromethyl)benzenesulfonamide] | 0.1 to 1 µM | 50 to 100 µM |
| Cc1ccc(F)c([C@@H](C)[C@H](NS(=O)(=O)c2ccc(Cl)cc2CC(=O)N(C)C)c2nn[nH]n2)c1C [Example 22, 2-(5-chloro-2-(N-((1S,2R)-2-(6-fluoro-2,3-dimethylphenyl)-1-(2H-tetrazol-5-yl)propyl)sulfamoyl)phenyl)-N,N-dimethylacetamide] | 0.1 to 1 µM | 30 to 50 µM |
| Cc1ccc(F)c([C@@H](C)[C@H](NS(=O)(=O)c2ccc(Cl)cc2CC(N)=O)c2nn[nH]n2)c1C [Example 23, 2-(5-chloro-2-(N-((1S,2R)-2-(6-fluoro-2,3-dimethylphenyl)-1-(2H-tetrazol-5-yl)propyl)sulfamoyl)phenyl)acetamide] | 0.1 to 1 µM | 50 to 100 µM |
| Cc1ccc(F)c([C@@H](C)[C@H](NS(=O)(=O)c2ccc(Cl)cc2CC(=O)N2CCCCC2)c2nn[nH]n2)c1C [Example 24, 4-chloro-N-((1S,2R)-2-(6-fluoro-2,3-dimethylphenyl)-1-(2H-tetrazol-5-yl)propyl)-2-(2-oxo-2-(piperidin-1-yl)ethyl)benzenesulfonamide] | 0.1 to 1 µM | 10 to 30 µM |
| Cc1cc(Cl)ccc1S(=O)(=O)N[C@H](c1nn[nH]n1)[C@H](C)c1c(F)ccc(C)c1C [Example 25, 4-chloro-N-((1S,2R)-2-(6-fluoro-2,3-dimethylphenyl)-1-(2H-tetrazol-5-yl)propyl)-2-methylbenzenesulfonamide] | 0.1 to 1 µM | 10 to 30 µM |
| Cc1ccc(F)c([C@@H](C)[C@H](NS(=O)(=O)c2ccc(Cl)cc2CC(=O)N2CCOCC2)c2nn[nH]n2)c1C [Example 26, 4-chloro-N-((1S,2R)-2-(6-fluoro-2,3-dimethylphenyl)-1-(2H-tetrazol-5-yl)propyl)-2-(2-morpholino-2-oxoethyl)benzenesulfonamide] | 0.1 to 1 µM | 50 to 100 µM |
| Cc1ccc(F)c([C@@H](C)[C@H](NS(=O)(=O)c2ccc(Cl)cc2OC(F)F)c2nn[nH]n2)c1C [Example 27, 4-chloro-2-(difluoromethoxy)-N-((1S,2R)-2-(6-fluoro-2,3-dimethylphenyl)-1-(2H-tetrazol-5-yl)propyl)benzenesulfonamide] | ≤ 0.1 µM | 10 to 30 µM |
| Cc1ccc(F)c([C@@H](C)[C@H](NS(=O)(=O)c2c(Cl)cc(Cl)c3c2OCCN3C)c2nn[nH]n2)c1C [Example 28, 5,7-dichloro-N-((1S,2R)-2-(6-fluoro-2,3-dimethylphenyl)-1-(2H-tetrazol-5-yl)propyl)-4-methyl-3,4-dihydro-2H-benzo[b][1,4]oxazine-8-sulfonamide] | ≤ 0.1 µM | 50 to 100 µM |
| Cc1ccc(F)c([C@@H](C)[C@H](NS(=O)(=O)c2ccc(Cl)c3c2OCCN3C)c2nn[nH]n2)c1C [Example 29, 5-chloro-N-((1S,2R)-2-(6-fluoro-2,3-dimethylphenyl)-1-(2H-tetrazol-5-yl)propyl)-4-methyl-3,4-dihydro-2H-benzo[b][1,4]oxazine-8-sulfonamide] | ≤ 0.1 µM | ≤ 10 µM |
| Cc1ccc(F)c([C@@H](C)[C@H](NS(=O)(=O)c2ccc(Cl)cc2OC(F)(F)F)c2nn[nH]n2)c1C [Example 30, 4-chloro-N-((1S,2R)-2-(6-fluoro-2,3-dimethylphenyl)-1-(2H-tetrazol-5-yl)propyl)-2-(trifluromethoxy)benzenesulfonamdie] | ≤ 0.1 µM | 10 to 30 µM |
| Cc1cc(S(=O)(=O)N[C@H](c2nn[nH]n2)[C@H](C)c2c(F)ccc(C)c2C)c(C)cc1Cl [Example 31, 4-chloro-N-((1S,2R)-2-(6-fluoro-2,3-dimethylphenyl)-1-(2H-tetrazol-5-yl)propyl)-2,5-dimethylbenzenesulfonamide] | 1 to 5 µM | 50 to 100 µM |
| Cc1ccc(F)c([C@@H](C)[C@H](NS(=O)(=O)c2ccc(Cl)c(Cl)c2)c2nn[nH]n2)c1C [Example 32, 3,4-dichloro-N-((1S,2R)-2-(6-fluoro-2,3-dimethylphenyl)-1-(2H-tetrazol-5-yl)propyl)benzenesulfonamide] | 0.1 to 1 µM | 50 to 100 µM |
| Cc1ccc(F)c([C@@H](C)[C@H](NS(=O)(=O)c2ccc(Cl)cc2)c2nn[nH]n2)c1C [Example 33, 4-chloro-N-((1S,2R)-2-(6-fluoro-2,3-dimethylphenyl)-1-(2H-tetrazol-5-yl)propyl)benzenesulfonamide] | 0.1 to 1 µM | 30 to 50 µM |
| COc1cc(Cl)ccc1S(=O)(=O)N[C@H](c1nnnn1C)[C@H](C)c1c(F)ccc(C)c1C [Example 34, 4-chloro-N-((1S,2R)-2-(6-fluoro-2,3-dimethylphenyl)-1-(1-methyl-1H-tetrazol-5-yl)propyl)-2-methoxybenzensulfonamide] | 5 to 30 µM | 50 to 100 µM |
| COc1cc(Cl)ccc1S(=O)(=O)N[C@H](c1nnn(C)n1)[C@H](C)c1c(F)ccc(C)c1C [Example 35, 4-chloro-N-((1S,2R)-2-(6-fluoro-2,3-dimethylphenyl)-1-(2-methyl-2H-tetrazol-5-yl)propyl)-2-methoxybenzensulfonamide] | 5 to 30 µM | 50 to 100 µM |
| Cc1ccc(F)c([C@@H](C)[C@H](NS(=O)(=O)c2cc(Cl)c(F)cc2F)c2nn[nH]n2)c1C [Example 36, 5-chloro-2,4-difluoro-N-((1S,2R)-2-(6-fluoro-2,3-dimethylphenyl)-1-(2H-tetrazol-5-yl)propyl)benzenesulfonamide] | 1 to 5 µM | 50 to 100 µM |
